Tested on: N202-H2BGFP tumor spheroids
Test: Doxorubicin treatment of N202-H2BGFP tumor spheroids in dorsal skinfold window chamber
Format: in vivo, mouse
Details: single dose 1 or 5 mg/kg via the tail vein after re-vascularization, nu/nu nude mice

SMILES: COc1cccc2c1C(=O)c1c(O)c3c(c(O)c1C2=O)C[C@@](O)(C(=O)CO)C[C@@H]3O[C@H]1C[C@H](N)[C@H](O)[C@H](C)O1 [Doxorubicin]
- effect on the growing tumor implanted on the engrafted mammary fat pad (orthotopic engrafted mammary fat pad, over a 2 week period, FIG. 6B): little to no effect
- effect on the growing tumor implanted on the skinfold (tumor implanted on skinfold, FIG. 6A): essentially tumor stasis

Source: patent publication US20110173709A1, “ECTOPIC, ORTHOTOPIC MODEL FOR REVASCULARIZATION AND TUMOR ASSESSMENT” (Sidney Kimmel Cancer Center, priority 2007, published 2011)
